Here are results for 1 compound from article PMC8780741, “Integration of In Silico, In Vitro and In Situ Tools for the Preformulation and Characterization of a Novel Cardio-Neuroprotective Compound during the Early Stages of Drug Development” (Pharmaceutics, 2022).

Series [1] is described as follows: Refinement of intrinsic and salt solubility with pDISOL-X. The source says: To develop a solution speciation model, the experimental data of log S—pH were used as input into the computer program pDISOL-X [30]. The computational algorithm considers the contributions of all species present in solution, including all buffer components. The program derives its own implicit solubility equations internally, given any practical number of equilibria and estimated constants. The equilibrium constants are subsequently refined by weighted nonlinear least-squares regression. The method can test for the presence of specific buffer drug species. The program assumes an initial condition of a suspension of the solid drug in a solution, ideally with the suspension saturated over a wide range of pH. The software calculates the species distribution as a consequence of a sequence of additions of standardized strong-acid titrant HCl to simulate the suspension pH-speciation down to pH ~ 0, the staging point for the subsequent operation. […] The ionic strength is rigorously calculated at each step, and pKa values (as well as the solubility products and the aggregation and complexation constants) are adjusted accordingly. At the end of the pH-speciation simulation, the calculated log S vs. pH curve is compared to log S vs. pH measured. A log S-weighted nonlinear least squares refinement begins to refine the proposed equilibrium model, using analytical expressions for the differential equations. The process is repeated until the differences between calculated and measured log S values reach a minimum.

Series [2] can be described thus: Human oral fraction absorbed estimated from rat intestinal permeability. The following applies: calculated from rat permeability values in all segments (whole small intestine). The source says:
The permeability values obtained in the different intestinal sections (See Table 4) corroborate the results obtained in the cell lines. […] This supports that if a compound has a high absorbed dose fraction, it will have a high-permeability, not necessarily in the jejunum, but somewhere along the relevant intestinal absortive regions. Correlations between permeability values in the rat small intestine (whole or segments) obtained by Doluisio’s method and their correlation with the orally absorbed fraction in humans were previously published. In fact, Fabs can be calculated considering the permeability values in all segments (whole small intestine) and the estimated oral absorbed fraction was 85.12%. According to this property, the drug may be a good candidate to be formulated for oral administration.

Read-outs that look alike come from different tables or passages of the source.

As for `CCOC(=O)C1=C(C)NC2=C(C=Nc3ccccc3N2)C1c1ccccc1[N+](=O)[O-]` (centres unmarked) [JM-20, 3-ethoxycarbonyl-2-methyl-4-(2-nitrophenyl)-4,11-dihydro-1H-pyrido [2,3-b][1,5] benzodiazepine], the solubility in series [1] (37 °C, read-out: So, intrinsic solubility calculated by pDISOL-X) was 12 µg/mL; in series [1] (aqueous buffer, pH 3.5, 37 °C, read-out: Solubility calculated by pDISOL-X), 14.3 µg/mL; in series [1] (aqueous buffer, pH 4.0, 37 °C, read-out: Solubility calculated by pDISOL-X), 18.9 µg/mL; in series [1] (aqueous buffer, pH 4.5, 37 °C, read-out: Solubility calculated by pDISOL-X), 74.9 µg/mL; in series [1] (aqueous buffer, pH 6.8, 37 °C, read-out: Solubility calculated by pDISOL-X), 12.5 µg/mL; in series [1] (aqueous buffer, pH 7.4, 37 °C, read-out: Solubility calculated by pDISOL-X), 11.9 µg/mL. Besides, the solubility in series [1] (pH 1.2, 37 °C, read-out: Solubility calculated by pDISOL-X) was 3.3 µg/mL. For the same compound, the “Estimated oral absorbed fraction (Fabs) in humans” value in series [2] is listed as 85.12%.

Usually solubility stands for how much of the substance goes into solution per volume.
